Source: patent US8282952B2, “Insect attractant” (Activetrad (Proprietary) Limited, priority 2007, dated 2012)

Key:
Female medflies [1] = test: Delta trap catches in temperature controlled room, released female medflies; details: for effect on medfly attraction when added to NATC 1%: Experiment 22
Female medflies [2] = test: Delta trap catches in orchards, released female medflies; type: in vivo, Ceratitis capitata

SMILES: Cc1cnc(C)c(C)n1 [2,3,5-Trimethyl pyrazine]
- effect on medfly attraction when added to NATC 1% (Female medflies [1]): suppressed medfly attraction

SMILES: COc1cccc(C(N)=O)c1 [3-Methoxy benzamide]
- effect on medfly attraction when added to NATC 1% (Female medflies [1]): suppressed medfly attraction

SMILES: CC(=O)OCC[N+](C)(C)C.[Cl-] [Acetyl choline chloride]
- times more attractive than the tri-ethanolamine mixtures (Female medflies [1]; as amine in the NATC/amine/NH4Ac/Molasses mixture): about 3 times
- more medflies attracted than Choline chloride (number) (Female medflies [1]; in vivo): 284.2
- more medflies attracted than Choline chloride (percent) (Female medflies [1]; in vivo): 93%

SMILES: CC(=O)O.N [Ammonium acetate]
- attracting partner for the NATC-0.5%+TEA-0.5% combination compared with Maltol 0.5% (Female medflies [1]; in vivo): stronger attracting partner
- increase of trap catches by addition to the NATC-1%+TEA-1% mixture (Female medflies [1]; in vivo): 272.5%

SMILES: CN(C)Cc1c[nH]c2ccccc12 [Gramine]
- effect on medfly attraction when added to NATC 1% (Female medflies [1]): suppressed medfly attraction

SMILES: CCOC(=O)CC(SP(=S)(OC)OC)C(=O)OCC (centres unmarked) [Malathion]
- times more female medflies caught with poison than without it (Female medflies [2]; in vivo): ~1.5 times

SMILES: C=C(C)[C@H]1Cc2c(ccc3c2O[C@@H]2COc4cc(OC)c(OC)cc4[C@@H]2C3=O)O1 [Rotenone]
- effect of the bait poison combined with NATC in YP on female medfly trap catches (Female medflies [2]; Experiment 7, 0.5% poison added to NATC 1% in YP vs NATC 1% in YP alone): small differences

SMILES: CC(=O)O [acetic acid]
- effect of addition on medfly trap catches with TEA (Female medflies [1]; Experiment 14, added to NATC + TEA): seems to decrease
